In US12415815B2, “Pyrido[2,3-e]oxazine derivatives as agricultural chemicals” (GLOBACHEM NV, priority 2020, dated 2025):
In brackets after ≈: the same amount, converted by molar mass.

Tested on: Zymoseptoria tritici
Test: Fungicidal activity screen in amended agar, 96 well plates, Zymoseptoria tritici
Format: cell-based
Settings: 1% potato dextrose agar, 10,000 spores/mL, 20, 2, 0.2 and 0.02 ppm, room temperature (18° C.), assessed after 7 days
Description: Compounds were screened in 96 well plates with 10 compounds per plate. Each compound was screened using agar amended to 20, 2, 0.2 and 0.02 ppm of the test material. Proline at 50 and 10 ppm and 0.2% DMSO were used respectively as positive and negative controls. Each test concentration and standard were tested twice on a plate.
Compounds were screened against the following three fungal pathogens—Botrytis cinerea, Alternaria alternata and Zymoseptoria tritici. The agar used in the test varied depending on the pathogen with Medium N used for B. cinerea and A. alternata and 1% potato dextrose agar for Z. tritici. For each pathogen sufficient spores were added to the appropriate agar to give 1,000 spores/mL agar of A. alternata, 5,000 spores/ml agar of B. cinerea and 10,000 spores/mL agar of Z. tritici.
A ×10 stock solution in 2% DMSO was produced for each dose i.e. 200, 20, 2 and 0.2 ppm, and 10 μl of this added to the appropriate wells on the plate. An equivalent amount of 2% DMSO and Proline stock at 500 and 100 ppm were added for the controls. To each well, 90 μl of the appropriate agar spore suspension was added to give the final well concentrations outlined in the first paragraph.
Plates were incubated at room temperature (18° C.) and assessed after: • a) 3 to 4 days A. alternata and B. cinerea • b) 7 days for Z. tritici
The amount of fungal growth in each well was compared to the DMSO controls and scored according to the following key: • A—EC50<2 ppm • B—2≤EC50<20 • C—EC50≥20 • D—No activity detected at the highest dose tested • NT—Not tested

Molecule | Zymoseptoria (fungal growth vs DMSO controls, EC50 ranking)
3-(7-chloro-6-(2-chlorophenoxy) benzo[d]thiazol-2-yl)-8-methoxy-2- thioxo-2,3-dihydro-4H-pyrido[2,3- e][1,3]oxazin-4-one [Example 35] | A (EC50<2 ppm)

Same assay, conditions: Zymoseptoria tritici, 168 h; 1% potato dextrose agar, 10,000 spores/mL, 20, 2, 0.2 and 0.02 ppm, room temperature (18° C.), assessed after 7 days; read-out: Zymoseptoria (fungal growth vs DMSO controls, EC50 ranking)

Molecule | EC50 [µg/mL]
COc1ccnc2c(=O)n(-c3nc4cc(-c5ccccc5Cl)c(Oc5ccc(F)cc5Cl)cc4s3)c(=S)oc12 [Example 12, 3-(6-(2-Chloro-4-fluorophenoxy)-5-(2-chlorophenyl)benzo[d]thiazol-2-yl)-8-methoxy-2-thioxo-2,3-dihydro-4H-pyrido[2,3-e][1,3]oxazin-4-one] | < 2
COc1ccnc2c(=O)n(-c3nc4c(-c5ccccc5)cc(Oc5ccc(F)cc5Cl)cc4s3)c(=S)oc12 [Example 13, 3-(6-(2-Chloro-4-fluorophenoxy)-4-phenylbenzo[d]thiazol-2-yl)-8-methoxy-2-thioxo-2,3-dihydro-4H-pyrido[2,3-e][1,3]oxazin-4-one] | < 2
COc1ccnc2c(=O)n(-c3nc4cnc(Oc5ccc(F)cc5Cl)nc4s3)c(=S)oc12 [Example 14, 3-(5-(2-Chloro-4-fluorophenoxy)thiazolo[5,4-d]pyrimidin-2-yl)-8-methoxy-2-thioxo-2,3-dihydro-4H-pyrido[2,3-e][1,3]oxazin-4-one] | < 2
COc1ccnc2c(=O)n(-c3nc4ccc(C(=O)OC(C)C)cc4s3)c(=S)oc12 [Example 15, Isopropyl 2-(8-methoxy-4-oxo-2-thioxo-2H-pyrido[2,3-e][1,3]oxazin-3(4H)-yl)benzo[d]thiazole-6-carboxylate] | < 2
COc1ccnc2c(=O)n(-c3nc4ccc(N(C)c5ccc(F)cc5Cl)cc4s3)c(=S)oc12 [Example 16, 3-(6-((2-Chloro-4-fluorophenyl)(methyl)amino)benzo[d]thiazol-2-yl)-8-methoxy-2-thioxo-2,3-dihydro-4H-pyrido[2,3-e][1,3]oxazin-4-one] | < 2
COc1ccnc2c(=O)n(-c3nc4ccc(Oc5ccccc5Cl)cc4s3)c(=S)oc12 [Example 18, 3-(6-(2-Chlorophenoxy)benzo[d]thiazol-2-yl)-8-methoxy-2-thioxo-2,3-dihydro-4H-pyrido[2,3-e][1,3]oxazin-4-one] | < 2
COc1ccnc2c(=O)n(-c3nc4ccc(C(=O)c5ccccc5)cc4s3)c(=S)oc12 [Example 19, 3-(6-Benzoylbenzo[d]thiazol-2-yl)-8-methoxy-2-thioxo-2,3-dihydro-4H-pyrido[2,3-e][1,3]oxazin-4-one] | 2 to 20 (≈ 4.47 to 44.7 µM)
COc1ccnc2c(=O)n(-c3nc4ccc(Cc5ccccc5)cc4s3)c(=S)oc12 [Example 24, 3-(6-Benzylbenzo[d]thiazol-2-yl)-8-methoxy-2-thioxo-2,3-dihydro-4H-pyrido[2,3-e][1,3]oxazin-4-one] | 2 to 20 (≈ 4.61 to 46.1 µM)
COc1ccnc2c(=O)n(-c3nc4ccc(Oc5ccc(Cl)cc5)cc4s3)c(=S)oc12 [Example 25, 3-(6-(4-Chlorophenoxy)benzo[d]thiazol-2-yl)-8-methoxy-2-thioxo-2,3-dihydro-4H-pyrido[2,3-e][1,3]oxazin-4-one] | < 2
COc1ccnc2c(=S)n(-c3nc4ccc(Oc5ccccc5Cl)cc4s3)c(=S)oc12 [Example 26, 3-(6-(2-Chlorophenoxy)benzo[d]thiazol-2-yl)-8-methoxy-2H-pyrido[2,3-e][1,3]oxazine-2,4(3H)-dithione] | < 2
COc1ccccc1Oc1ccc2nc(-n3c(=S)oc4c(OC)ccnc4c3=O)sc2c1 [Example 30, 8-methoxy-3-(6-(2-methoxyphenoxy)benzo[d]thiazol-2-yl)-2-thioxo-2,3-dihydro-4H-pyrido[2,3-e][1,3]oxazin-4-one] | < 2
COc1ccnc2c(=O)n(-c3nc4ccc(N(C)c5ccccc5Cl)cc4s3)c(=S)oc12 [Example 31, 3-(6-((2-chlorophenyl)(methyl)amino)benzo[d]thiazol-2-yl)-8-methoxy-2-thioxo-2,3-dihydro-4H-pyrido[2,3-e][1,3]oxazin-4-one] | < 2
